Reference: article PMC6761534 (Antimicrobial Agents and Chemotherapy, 2019)
In brackets after ≈: the same amount, converted by molar mass.

Assays:
M. bovis BCG [1] = test: microbe, parasite or virus in culture; assay type: cell-based; conditions: Mycobacterium tuberculosis variant bovis BCG, 120 h, read-out: Growth inhibition MIC90
[2] = target: mycobacterial F-ATP synthase (Mycobacterium bovis, UniProt A1KI93+A1KI99); test: biochemical; design: species or system Mycobacterium bovis BCG
[3] = test system: M. smegmatis ε subunit overexpresser strain; test: microbe, parasite or virus in culture; assay type: cell-based; conditions: Mycolicibacterium smegmatis, 24 h, 1 day, read-out: MIC50 ± SD, ε overexpresser
[4] = target: M. smegmatis F-ATP synthase (Mycolicibacterium smegmatis, UniProt A0R1Z9+A0R205); test: biochemical; design: species or system Mycobacterium smegmatis
M. smegmatis WT = test: microbe, parasite or virus in culture; assay type: cell-based, Mycobacterium smegmatis; conditions: Mycolicibacterium smegmatis; for MIC50: 24 h, read-out: MIC50 ± SD, M. smegmatis WT
M. bovis BCG [5] = test: microbe, parasite or virus in culture; assay type: cell-based; conditions: Mycobacterium tuberculosis variant bovis BCG, 24 h, read-out: IC50 ATP depletion (intrabacterial ATP)
M. tuberculosis H37Rv = test: microbe, parasite or virus in culture; assay type: cell-based; conditions: Mycobacterium tuberculosis, 168 h, read-out: M. tuberculosis H37Rv MIC90
[6] = test system: mycobacterial F-ATP synthase (ATPase activity); test: Continuous ATP hydrolysis assay with M. smegmatis inverted membrane vesicles; assay type: biochemical, Mycobacterium smegmatis

Chain of mycobacterial F-ATP synthase (A1KI93 whole entry, looked up): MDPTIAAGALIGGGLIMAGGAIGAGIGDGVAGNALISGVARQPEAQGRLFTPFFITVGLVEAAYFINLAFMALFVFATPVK
Chain of mycobacterial F-ATP synthase (A1KI99 whole entry, looked up): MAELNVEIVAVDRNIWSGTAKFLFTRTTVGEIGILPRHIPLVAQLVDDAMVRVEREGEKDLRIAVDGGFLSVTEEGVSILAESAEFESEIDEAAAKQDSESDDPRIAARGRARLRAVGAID

SMILES | MIC90 (M. bovis BCG [1]) | IC50 [2] | MIC50 [3] | IC50 [4] | MIC90 (M. smegmatis WT) | MIC50 (M. smegmatis WT) | IC50 (M. bovis BCG [5]) | MIC90 (M. tuberculosis H37Rv) | Inhibition of ATPase activity ([6]; 100 μM) | Inhibition of ATPase activity ([6]; 250 μM) | Inhibition of ATPase activity (in words) ([6]; BDQ-like) | Inhibition of ATPase activity (in words) ([6]; 250 μM)
COc1cc([C@](O)(CCN(C)C)[C@H](c2cc(OC(C)C)cnc2OC)c2cc3cc(Br)ccc3nc2OC)cc(OC)n1 [compound 5366] | 3.4 nM (≈ 2.23 ng/mL) | 0.2 nM | 14.3 ± 0.07 nM (≈ 9.37 ng/mL) | 0.0164 nM | 5.5 nM (≈ 3.61 ng/mL) | 2.1 ± 0.06 nM (≈ 1.38 ng/mL) | 0.32 nM | 30 nM (≈ 19.7 ng/mL) | 36% | 40% | – | –
COc1cc([C@](O)(CCN(C)C)[C@@H](c2cc3cc(Br)ccc3nc2OC)c2cccc3c2OCCO3)cc(OC)n1 [compound 5316] | 3.6 nM (≈ 2.25 ng/mL) | 0.047 nM | 1.68 ± 0.02 nM (≈ 1.05 ng/mL) | 0.011 nM | 4.6 nM (≈ 2.87 ng/mL) | 0.6 ± 0.03 nM (≈ 0.375 ng/mL) | 0.34 nM | 70 nM (≈ 43.7 ng/mL) | – | – | strong | –
COc1cc([C@](O)(CCN(C)C)[C@@H](c2cc3cc(Br)ccc3nc2OC)c2ccnc(OC)c2OC)cc(OC)n1 [compound 5307] | 3.6 nM (≈ 2.26 ng/mL) | 0.091 nM | 8 ± 0.1 nM (≈ 5.02 ng/mL) | 0.0087 nM | 3.5 nM (≈ 2.2 ng/mL) | 0.8 ± 0.05 nM (≈ 0.502 ng/mL) | 0.48 nM | 70 nM (≈ 43.9 ng/mL) | – | – | strong | –
COc1nc2ccc(Br)cc2cc1[C@@H](c1ccccc1)[C@@](O)(CCN(C)C)c1cccc2ccccc12 [BDQ, Bedaquiline, reference compound] | 70 nM (≈ 38.9 ng/mL) | 5.3 nM | 24 ± 0.1 nM (≈ 13.3 ng/mL) | 0.2 nM | 100 nM (≈ 55.6 ng/mL) | 12 ± 0.1 nM (≈ 6.67 ng/mL) | 9.16 nM | 400 nM (≈ 222 ng/mL) | 78% | – | – | almost completely
COc1cc([C@](O)(CCN(C)C)[C@@H](c2cc3cc(Br)ccc3nc2OC)c2cc(OC)nc(OC)c2OC)cc(OC)n1 [TBAJ-876] | 7.2 nM (≈ 4.73 ng/mL) | 0.031 nM | 2.75 ± 0.02 nM (≈ 1.81 ng/mL) | 0.0059 nM | 6.3 nM (≈ 4.14 ng/mL) | 1.1 ± 0.05 nM (≈ 0.723 ng/mL) | 0.89 nM | 125 nM (≈ 82.2 ng/mL) | – | – | strong | –
